How the values were obtained:
[1] = test system: human LS174T cell culture model of goblet cells; test: Mucosal barrier function: goblet cell gene expression by quantitative RT-PCR; assay type: cell-based; conditions: 5 mg HMO/ml, compared to control cultures
Description: 2′-FL and LNnT are tested with respect to their ability to induce MUC2, TFF3, EIMβ, CHST5, and GAL3ST2 expression in the human LS174T cell culture model of goblet cells. The human LS174T cell line is obtained from the American Type Culture Collection (ATCC). LS174T cells are maintained in minimum essential medium (MEM) supplemented according to instructions at 37° C. in 5% CO2. 2′-FL and LNnT are dissolved in cell culture grade water to the required concentration. The LS174T cells are treated with the HMO solution containing 0 or 5 mg HMO/ml. The LS174T cells are collected and suspended in Trizol reagent and total RNA is isolated using an RNA analysis kit (Qiagen) according to the manufacturer's instructions and the RNA isolates are quantified using Nanodrop analysis (Thermo Fisher Scientific). RNA isolates are reverse transcribed using a high capacity cDNA Reverse Transcription Kit (Applied Biosystems) to create cDNA, which is then used to assess gene expression via quantitative RT-PCR. For the quantitative RT-PCR, specific TaqMAN gene expression assays are obtained from Applied Biosystems, which include expression assays for MUC2, TFF3, CHST5 and GAL3ST2. Quantitative real-time PCR is performed using TaqMAN PCR Master Mix (Applied Biosystems). Reactions are run in duplicates in a 384-well plate using an Applied Biosystems 7900HT Fast Real-Time PCR System. The results are analysed using SDS 2.3 software and calculated by delta delta Ct method. All samples are normalized to Gus-β expression and fold induction is calculated over untreated controls. Gene expression is expressed as fold increase compared to HMO-free control cells. The experiment is repeated three times.

IBS-D patients = conditions: cited from earlier work

Compound | expression of the MUC2 gene [1] | expression of the TFF3 gene [1] | induction of CHST5 [1] | induction of GAL3 ST2 [1] | bowel movement (IBS-D patients)
2′-fucosyllactose [2′-FL] | increases | increases | minimal induction | lack of induction | –
CC(=O)N[C@H]1[C@H](O[C@H]2[C@@H](O)[C@@H](CO)O[C@@H](O[C@H]3[C@H](O)[C@@H](O)C(O)O[C@@H]3CO)[C@@H]2O)O[C@H](CO)[C@@H](O[C@@H]2O[C@H](CO)[C@H](O)[C@H](O)[C@H]2O)[C@@H]1O (mixture of isomers) [LNnT, lacto-N-neotetraose] | increases | increases | minimal induction | lack of induction | –
CO[C@H]1/C=C/O[C@@]2(C)Oc3c(C)c(O)c4c(O)c(c5c(nc6cc(C)ccn65)c4c3C2=O)NC(=O)/C(C)=C\C=C\[C@H](C)[C@H](O)[C@@H](C)[C@@H](O)[C@@H](C)[C@H](OC(C)=O)[C@@H]1C [rifaximin] | – | – | – | – | reduce

From patent US11896604B2, “Composition comprising HMSs/HMOs and use thereof” (Glycom A/S, priority 2014, dated 2024)
